The target in experiment [1] is Beta-secretase 1 (Homo sapiens, UniProt P56817). Put plainly: Inhibition of human BACE-1 after 30 mins by FRET assay.
Experiment [2] deals with T1, Bromodomain-containing protein 4 (Homo sapiens, UniProt O60885). Put plainly: Binding affinity to human BRD4 bromodomain-1.
For experiment [3], the target named is T2, ATPase family AAA domain-containing protein 2 (Homo sapiens, UniProt Q6PL18).
T2 sequence (Q6PL18 whole entry): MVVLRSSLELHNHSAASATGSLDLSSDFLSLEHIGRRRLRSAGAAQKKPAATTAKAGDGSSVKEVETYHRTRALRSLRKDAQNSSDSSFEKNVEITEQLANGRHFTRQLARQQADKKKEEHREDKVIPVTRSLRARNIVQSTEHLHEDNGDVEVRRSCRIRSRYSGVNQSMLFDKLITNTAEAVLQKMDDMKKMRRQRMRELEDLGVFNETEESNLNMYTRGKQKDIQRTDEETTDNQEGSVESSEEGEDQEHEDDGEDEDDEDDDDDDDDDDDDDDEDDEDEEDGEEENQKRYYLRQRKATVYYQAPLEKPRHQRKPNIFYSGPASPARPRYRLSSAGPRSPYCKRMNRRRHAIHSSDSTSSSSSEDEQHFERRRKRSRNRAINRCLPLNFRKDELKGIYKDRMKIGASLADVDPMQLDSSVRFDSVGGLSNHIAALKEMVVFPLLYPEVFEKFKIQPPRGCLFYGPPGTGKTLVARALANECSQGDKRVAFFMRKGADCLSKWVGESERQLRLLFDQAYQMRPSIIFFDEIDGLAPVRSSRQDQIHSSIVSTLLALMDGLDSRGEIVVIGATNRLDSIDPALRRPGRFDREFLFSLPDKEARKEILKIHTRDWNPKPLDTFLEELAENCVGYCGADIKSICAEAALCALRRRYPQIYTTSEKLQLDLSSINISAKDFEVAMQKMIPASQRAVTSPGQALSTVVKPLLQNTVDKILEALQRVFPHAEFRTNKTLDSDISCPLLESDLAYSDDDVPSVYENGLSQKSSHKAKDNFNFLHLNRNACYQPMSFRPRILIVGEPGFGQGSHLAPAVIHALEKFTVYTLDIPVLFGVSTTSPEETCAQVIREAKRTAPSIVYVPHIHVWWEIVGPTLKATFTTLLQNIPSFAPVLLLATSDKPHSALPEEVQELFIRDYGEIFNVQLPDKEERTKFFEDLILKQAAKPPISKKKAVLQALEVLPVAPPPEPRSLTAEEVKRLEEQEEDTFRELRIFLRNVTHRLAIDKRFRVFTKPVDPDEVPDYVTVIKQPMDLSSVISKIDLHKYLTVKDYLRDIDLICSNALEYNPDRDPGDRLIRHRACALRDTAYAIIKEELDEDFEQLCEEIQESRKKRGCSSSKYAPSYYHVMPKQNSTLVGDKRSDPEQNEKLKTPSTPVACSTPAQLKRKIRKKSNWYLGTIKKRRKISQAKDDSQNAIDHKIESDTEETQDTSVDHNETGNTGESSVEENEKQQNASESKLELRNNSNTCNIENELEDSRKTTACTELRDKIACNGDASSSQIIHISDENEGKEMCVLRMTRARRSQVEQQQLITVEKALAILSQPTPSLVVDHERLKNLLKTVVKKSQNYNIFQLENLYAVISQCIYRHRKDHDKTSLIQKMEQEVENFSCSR
Put plainly: Inhibition of H4K5/8/12/16-Ac-biotin binding to human ATAD2 by Alpha screen assay.

Experiment [4] concerns the target T1, Bromodomain-containing protein 4. Put plainly: Inhibition of H4K5/8/12/16-Ac-biotin binding to human BRD4 bromodomain-1 by Alpha screen assay.
In experiment [5] the target is T3, 3-dehydroquinate dehydratase (Helicobacter pylori (strain ATCC 700392 / 26695) (Campylobacterpylori), UniProt Q48255).
T3 sequence (Q48255 whole entry): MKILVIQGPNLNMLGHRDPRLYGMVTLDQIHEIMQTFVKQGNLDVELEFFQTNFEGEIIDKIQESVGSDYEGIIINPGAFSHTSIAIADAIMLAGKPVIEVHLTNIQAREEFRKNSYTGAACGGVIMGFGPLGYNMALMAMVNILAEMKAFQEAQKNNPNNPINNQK
Put plainly: Inhibition of Helicobacter pylori DHQ2.

For experiment [6], the target named is CREB-binding protein (Homo sapiens, UniProt Q92793). Put plainly: Inhibition of H4K5/8/12/16-Ac-biotin binding to human CREBBP by Alpha screen assay.
CREB-binding protein, sequence (Q92793 whole entry): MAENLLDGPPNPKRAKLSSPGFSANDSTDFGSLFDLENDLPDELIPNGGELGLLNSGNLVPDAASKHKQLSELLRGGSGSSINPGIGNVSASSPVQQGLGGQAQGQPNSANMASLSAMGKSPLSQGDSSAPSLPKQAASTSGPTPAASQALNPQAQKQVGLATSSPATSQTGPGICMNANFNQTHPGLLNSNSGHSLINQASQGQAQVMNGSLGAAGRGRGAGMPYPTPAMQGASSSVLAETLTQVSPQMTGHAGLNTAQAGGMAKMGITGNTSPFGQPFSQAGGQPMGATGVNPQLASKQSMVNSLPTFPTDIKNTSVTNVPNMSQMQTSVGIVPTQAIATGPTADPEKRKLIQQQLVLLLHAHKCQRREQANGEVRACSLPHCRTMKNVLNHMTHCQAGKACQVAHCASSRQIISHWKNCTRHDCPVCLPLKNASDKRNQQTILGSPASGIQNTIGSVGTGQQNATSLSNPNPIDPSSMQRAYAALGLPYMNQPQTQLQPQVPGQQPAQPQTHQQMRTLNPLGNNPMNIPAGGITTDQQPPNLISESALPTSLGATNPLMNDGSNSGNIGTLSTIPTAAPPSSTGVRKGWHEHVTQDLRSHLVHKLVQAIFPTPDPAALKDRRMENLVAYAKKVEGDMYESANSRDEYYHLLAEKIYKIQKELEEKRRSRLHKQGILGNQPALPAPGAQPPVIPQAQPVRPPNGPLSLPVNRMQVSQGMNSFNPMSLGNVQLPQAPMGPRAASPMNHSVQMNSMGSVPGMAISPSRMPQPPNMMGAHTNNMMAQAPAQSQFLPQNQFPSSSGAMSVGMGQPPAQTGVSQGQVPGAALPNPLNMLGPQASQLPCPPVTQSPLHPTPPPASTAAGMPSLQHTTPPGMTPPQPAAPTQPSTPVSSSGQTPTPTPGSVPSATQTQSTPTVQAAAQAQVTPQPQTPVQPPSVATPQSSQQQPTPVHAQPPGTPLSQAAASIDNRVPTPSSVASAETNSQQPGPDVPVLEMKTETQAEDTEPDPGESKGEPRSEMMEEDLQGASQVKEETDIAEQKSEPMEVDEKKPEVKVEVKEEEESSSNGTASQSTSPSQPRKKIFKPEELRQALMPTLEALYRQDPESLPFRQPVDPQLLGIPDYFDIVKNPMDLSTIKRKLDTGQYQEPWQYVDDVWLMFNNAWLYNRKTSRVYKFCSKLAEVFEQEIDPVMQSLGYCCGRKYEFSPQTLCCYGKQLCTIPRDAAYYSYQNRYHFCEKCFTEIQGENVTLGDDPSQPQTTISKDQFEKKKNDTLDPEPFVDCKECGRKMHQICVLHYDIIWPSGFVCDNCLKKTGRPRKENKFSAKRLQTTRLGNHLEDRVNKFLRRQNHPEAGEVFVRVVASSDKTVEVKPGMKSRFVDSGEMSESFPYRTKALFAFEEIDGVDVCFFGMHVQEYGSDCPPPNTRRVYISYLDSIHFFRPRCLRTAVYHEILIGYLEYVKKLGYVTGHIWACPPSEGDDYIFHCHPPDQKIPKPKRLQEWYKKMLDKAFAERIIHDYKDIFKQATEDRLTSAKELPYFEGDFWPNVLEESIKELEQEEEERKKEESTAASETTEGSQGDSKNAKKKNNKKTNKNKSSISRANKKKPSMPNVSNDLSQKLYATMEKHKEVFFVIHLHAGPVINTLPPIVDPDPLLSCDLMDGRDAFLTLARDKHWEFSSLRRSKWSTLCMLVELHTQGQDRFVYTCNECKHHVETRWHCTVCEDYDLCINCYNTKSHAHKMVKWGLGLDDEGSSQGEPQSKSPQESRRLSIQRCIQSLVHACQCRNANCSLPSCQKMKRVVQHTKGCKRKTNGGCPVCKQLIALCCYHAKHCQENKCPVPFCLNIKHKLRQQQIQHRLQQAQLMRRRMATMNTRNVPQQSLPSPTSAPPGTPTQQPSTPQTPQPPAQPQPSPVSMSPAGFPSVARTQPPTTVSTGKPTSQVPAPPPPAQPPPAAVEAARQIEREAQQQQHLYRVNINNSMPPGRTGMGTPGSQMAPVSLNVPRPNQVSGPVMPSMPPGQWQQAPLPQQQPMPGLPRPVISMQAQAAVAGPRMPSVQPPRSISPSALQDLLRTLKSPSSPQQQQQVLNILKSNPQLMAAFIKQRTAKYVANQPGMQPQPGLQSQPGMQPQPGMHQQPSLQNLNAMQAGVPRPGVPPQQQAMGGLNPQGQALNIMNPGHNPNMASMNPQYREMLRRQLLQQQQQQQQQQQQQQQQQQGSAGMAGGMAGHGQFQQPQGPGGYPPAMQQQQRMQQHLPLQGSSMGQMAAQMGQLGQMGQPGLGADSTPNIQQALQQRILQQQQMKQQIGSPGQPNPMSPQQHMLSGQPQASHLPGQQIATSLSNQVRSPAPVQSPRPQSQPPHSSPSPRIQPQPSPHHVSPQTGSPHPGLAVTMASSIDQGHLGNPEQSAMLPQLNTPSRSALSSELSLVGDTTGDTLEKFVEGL

Beta-secretase 1, sequence (P56817 whole entry): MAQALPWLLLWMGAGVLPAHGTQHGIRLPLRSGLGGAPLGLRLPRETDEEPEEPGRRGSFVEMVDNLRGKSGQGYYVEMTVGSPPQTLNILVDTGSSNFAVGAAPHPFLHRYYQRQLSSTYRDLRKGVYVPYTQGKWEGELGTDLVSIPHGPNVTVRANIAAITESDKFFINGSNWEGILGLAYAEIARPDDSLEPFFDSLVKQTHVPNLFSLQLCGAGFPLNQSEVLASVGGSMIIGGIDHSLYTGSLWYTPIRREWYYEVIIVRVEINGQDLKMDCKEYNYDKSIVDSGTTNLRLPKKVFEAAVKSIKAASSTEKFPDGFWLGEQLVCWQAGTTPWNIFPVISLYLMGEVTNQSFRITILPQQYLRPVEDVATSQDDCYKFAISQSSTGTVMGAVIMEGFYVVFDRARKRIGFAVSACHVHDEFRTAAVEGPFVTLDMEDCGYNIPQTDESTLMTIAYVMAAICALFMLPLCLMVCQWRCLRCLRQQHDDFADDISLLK

Consider `O=C(O)c1cc(-c2ccc(/C=N/Nc3nc(Nc4ccc(F)cc4)nc(N4CCOCC4)n3)o2)ccc1Cl`, for which, in experiment [1], the IC50 came to 7 µM. In experiment [2], `CC(=O)N(C)c1cccc(-c2ccc3nnc(C)n3n2)c1` returned a Kd of 7 µM. For the compound `Cc1ccc(OCCCC(=O)Nc2nc(C)c(C)s2)cc1`, the IC50 in experiment [3] came out at 23 µM. Compound `COc1cc(/C=C2\SC(=O)N=C2N)ccc1O` had an IC50 in experiment [4] of 22 µM. Regarding `CC(C)[C@H](NC(=O)CCCn1c(=O)[nH]c2ccccc2c1=O)C(=O)O`, in experiment [5], affinity was put at a Ki of 19 µM. In experiment [6], `O=C1CNCC(C(=O)NCCn2nc(-c3ccccc3)ccc2=O)N1` (stereo unspecified) showed an IC50 of 55 µM.
